Laboratory results taken from patent publication US11440932B2, “Surfactant compounds-clips for extraction and stabilization in solution of membrane proteins” (CENTRE NATIONAL DE LA RECHERCHE SCIENTIFIQUE, priority 2017, dated 2022).

Target: T1, BmrA (Bacillus subtilis, UniProt O06967)
T1 construct: His tag; made in house; host or cells: E. coli C41(DE3)
Assay: ATPase activity of BmrA after addition of detergents
Type: biochemical, bacterial; produced in E. coli C41 DE3
Conditions: at extracting concentrations; relative to protein without compound
Description: FIG. 7 depicts the effect of the detergents of the invention on the functionality of BmrA (ATPase activity, %). The membrane fraction enriched in BmrA (˜25%) diluted to 2 g/l has the compounds added to it at the concentrations (mM) indicated (panel A, from top to bottom: 3.7e 10.7 mM, 3.7e 8.6 mM, 3.7e 6.4 mM, 3.7e 4.3 mM, 3.7e 2.2 mM, 3.7e 1.1 mM, 3.7d 4 mM, 3.7d 3 mM, 3.7d 2 mM, 3.7d 1 mM, 3.7d 0.8 mM, 3.7d 0.6 mM, 3.7d 0.05 mM, 3.7d 0.03 mM, 3.7d 0.02 mM, 3.7c 13 mM, 3.7c 10.4 mM, 3.7c 10 mM, 3.7b 1.5 mM, 3.7b 0.7 mM, 3.7b 0.5 mM, 2.3gNa2 20.5 mM, 2.3gK2 19.3 mM, 2.3f 21.1 mM, 2.3e 22 mM, 2.3d 23.2 mM, 2.3a 3.2 mM, 1.5a 22 mM, DDM 20 mM, DDM 2 mM, DDM 10 mM, DOM 2 mM, DDM 1 mM, LMNG 10 mM, LMNG 1 mM, LMNG 0.1 mM, LMNG 0.01 mM, FA3 27 mM, FA3 9 mM, FA3 2 mM, FA3 1 mM, TX100 16 mM; panel B from top to bottom: compounds of the invention 5.3d 3.2 mM, 5.3c 3.3 mM, 5.3b 11.7 mM, 5.3b 2.9 mM, 5.3a 3 mM, 4.6c 14.6 mM, 4.6b 15.2 mM, 4.5c 18.6 mM, 4.5b 19.6 mM, 3.9a 8 mM, 3.9a 0.51 mM, 3.9a 0.31 mM, 3.9a 0.11 mM, 3.7l 12.01 mM, 3.7l 6.01 mM, 3.7l 3 mM, 3.7l 1 mM, 3.7k 10 mM, 3.7k 3 mM, 3.7j 3 mM, 3.7j 2 mM, 3.7j 1 mM, 3.7j 0.6 mM, 3.7j 0.03 mM, 3.7j 0.02 mM, 3.7j 1 mM, 3.7i 0.3 mM, 3.7h 3 mM, 3.7h 2 mM, 3.7h 1 mM, 3.7h 0.6 mM, 3.7h 0.58 mM, 3.7h 0.5 mM, 3.7h 0.35 mM, 3.7h 0.1 mM, 3.7h 0.5 mM, 3.7h 0.35 mM, 3.7h 0.1 mM, 3.7h 0.05 mM, 3.7h 0.03 mM, 3.7h 0.02 mM, 3.7g 12.5 mM, 3.7g 9 mM, 3.7g 7.5 mM, 3.7g 5 mM, 3.7g 3 mM, 3.7g 1 mM, 3.7f 3.2 mM, 3.7f 2 mM, 3.7f 1 mM, 3.7f 0.061 mM, 3.7f 0.031 mM, 3.7f 0.015 mM). After incubation for 2 h at 4° C., the ATPase activity is measured. The solutions are subsequently centrifuged for 1 h at 4° C., 100 000×g, and the supernatants deposited on 10% SDS-PAGE (cf. FIG. 8). The gray and black histograms correspond to the concentrations at which BmrA is partially (gray) or entirely (black) extracted, according to these SDS-PAGE. The ATPase activity is in % relative to that of the protein without compound, 0.7 μmol ATP hydrolyzed/min/mg of proteins.
The molecules of the invention which extract BmrA in the previous example were tested at different sub-solubilizing and solubilizing concentrations, to evaluate their impact on the native and functional state of the protein. The latter is monitored by the hydrolysis of ATP which is carried out by the protein during the transport cycle, coupled with translocation of the solute. As reported previously (Matar-Merheb, R. et al. ([11])), the ATPase activity of BmrA is a highly sensitive marker of the state of the protein, the latter being particularly sensitive to the detergents used during the extraction step, where said detergents replace the lipids on contact with the membrane protein.
Procedure. BmrA produced and enriched in the plasma membrane of E. coli C41 DE3 is prepared as described previously (Matar-Merheb, R. et al. ([11])). The membranes are diluted at 2 g/l in a 20 mM Tris-HCl buffer, pH 8.0, 100 mM NaCl, 15% glycerol, with protease inhibitors (Roche) added thereto at an amount of one tablet/100 ml. The mixture (T) is incubated for 2 h at 4° C. and the ATPase activity is measured using the coupled-enzyme system, separating off the vanadate-insensitive activity from the total activity, Centeno, F. et al. Expression of the sarcoplasmic reticulum Ca^2+-ATPase in yeast. FEBS Lett 354, 117-122 (1994) ([25])). The solutions are subsequently centrifuged for 1 h at 4° C. at 100 000×g in order to separate the extracted fraction (supernatant, S) from that which is not extracted (pellet). The supernatants are deposited on 10% SDS-PAGE and stained with Coomassie blue after migration (FIG. 8). DDM, LMNG (Chae, P. S. et al. ([6])), TritonX100 and FA3 (Lee, S. C. et al. (2013) ([9])) are tested as reference detergents. The DDM and LMNG originate from Anatrace, the Triton X100 originates from Sigma-Aldrich and the FA3 from Avanti-Polars.

T1 sequence (O06967 whole entry): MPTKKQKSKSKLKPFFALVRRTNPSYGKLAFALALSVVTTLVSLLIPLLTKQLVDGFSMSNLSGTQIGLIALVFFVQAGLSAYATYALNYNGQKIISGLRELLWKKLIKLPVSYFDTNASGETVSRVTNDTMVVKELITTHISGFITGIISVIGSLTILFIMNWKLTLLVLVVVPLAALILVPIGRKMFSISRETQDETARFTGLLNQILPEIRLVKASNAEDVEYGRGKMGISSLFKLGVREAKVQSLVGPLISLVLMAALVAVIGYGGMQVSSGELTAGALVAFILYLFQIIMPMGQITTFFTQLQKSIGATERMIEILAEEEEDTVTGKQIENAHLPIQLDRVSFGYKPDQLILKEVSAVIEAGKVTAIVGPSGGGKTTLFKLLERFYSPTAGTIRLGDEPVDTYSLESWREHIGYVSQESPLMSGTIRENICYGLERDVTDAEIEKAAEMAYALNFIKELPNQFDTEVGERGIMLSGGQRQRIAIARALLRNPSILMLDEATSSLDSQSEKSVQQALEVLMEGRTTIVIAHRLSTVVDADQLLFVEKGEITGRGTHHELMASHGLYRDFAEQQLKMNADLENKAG

SMILES | change of the ATPase activity of BmrA on extraction
CCCCCCCCCCCC(=O)N[C@@H](COCc1cn(CCO[C@@H]2OC(CO)[C@@H](O)C(O)C2O)nn1)C(=O)N[C@H](CCC(=O)O)C(=O)O (stereo partly drawn) [Compound 3.7b] | 1.5 ×
CCCCCCCCCCCCCC(=O)N[C@@H](COCc1cn(CCO[C@@H]2OC(CO)[C@@H](O)C(O)C2O)nn1)C(=O)N[C@H](CCC(=O)O)C(=O)O (stereo partly drawn) [Compound 3.7c] | 1.5 ×
CCCCCCCCCCCCCC(=O)N[C@@H](COCc1cn(CCO[C@@H]2OC(CO)[C@@H](O[C@H]3OC(CO)[C@@H](O)C(O)C3O)C(O)C2O)nn1)C(=O)N[C@H](CCC(=O)O)C(=O)O (stereo partly drawn) [Compound 3.7e] | 2 ×
CCCCCCCCCCCCCC(=O)N[C@@H](COCc1cn(CCOCCOCCOCCOCCOCCOC)nn1)C(=O)N[C@H](CCC(=O)O)C(=O)O [Compound 3.7g] | 1.5 ×
CCCCCCCCCCCCC(CCCCCCCCCCCC)C(=O)N[C@@H](COCc1cn(CCO[C@@H]2OC(CO)[C@@H](O)C(O)C2O)nn1)C(=O)N[C@H](CCC(=O)O)C(=O)O (stereo partly drawn) [Compound 3.7j] | maintaining
CCCCCCCCCCCCCC(=O)N[C@@H](COCc1cn(CCO[C@@H]2OC(CO)[C@@H](O)C(O)C2O)nn1)C(=O)N[C@@H](CCC(=O)O)C(=O)NCC(=O)O (stereo partly drawn) [Compound 3.7l] | maintaining
